Test results from patent publication US6288036A, “Bradykinin type peptides” (priority 1993, dated 2001).
*1 amine or outer side, *2 acyl side, *3 side chain or, on linkers, in order; H or OH if unused. Where a SMILES comes first, the peptide text is derived from it. Where no end group is shown, it is not given here. [ ]: non-standard residue; d: D form. The star is where a group is joined. X3 = O=C([C@@H]1C[C@H](Oc2ccc([N+](=O)[O-])cc2)CN1[*:1])[*:2]; X2 = O=C([C@@H]1C[C@H](Oc2ccccc2[N+](=O)[O-])CN1[*:1])[*:2]; Pro(cis-4-OPh) = O=C(O)[C@@H]1C[C@H](Oc2ccccc2)CN1; X1 = O=C([C@@H]1C[C@H](Sc2ccccc2)CN1[*:1])[*:2]; cisHyp = O=C(O)[C@@H]1C[C@H](O)CN1; Hyp = O=C(O)[C@@H]1C[C@@H](O)CN1; Cyclohexylmethyl = C1CCC(C*)CC1; dTic = O=C(O)[C@H]1Cc2ccccc2CN1

Columns and labels:
bradykinin receptor = biological target: T1, bradykinin receptor (Cavia porcellus, UniProt O70526); assay: 3H-Bradykinin binding assay, guinea pig terminal ileum homogenate; conditions: competition with 3H-bradykinin (~0.3 nM), guinea pig terminal ileum membranes, 90 min ambient temperature
T1 construct: from tissue; host or cells: guinea pig terminal ileum, washed membrane homogenate
T1 sequence (O70526 1-372): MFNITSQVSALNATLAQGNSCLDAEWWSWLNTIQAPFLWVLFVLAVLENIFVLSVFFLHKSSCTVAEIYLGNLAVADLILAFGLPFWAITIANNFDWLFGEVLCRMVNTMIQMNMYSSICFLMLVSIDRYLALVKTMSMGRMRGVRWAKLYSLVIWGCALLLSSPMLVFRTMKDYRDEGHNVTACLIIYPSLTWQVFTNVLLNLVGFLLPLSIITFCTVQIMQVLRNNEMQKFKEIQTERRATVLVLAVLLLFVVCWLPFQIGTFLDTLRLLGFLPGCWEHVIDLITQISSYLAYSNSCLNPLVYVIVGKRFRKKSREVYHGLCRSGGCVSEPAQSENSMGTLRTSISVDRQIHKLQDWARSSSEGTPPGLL
Description: Binding of ^3 H-Bradykinin was preformed using the method of D. C. Manning, […], and […]. Pharmacol. Exp. Ther., (1986),237 504. The tissues used in the binding assay were terminal ileum from male Hartley guinea pigs (150-350 g). After dissection, tissues were placed in 20 vol of ice-cold buffer A (25 Mm TES containing 0.2 g/L of 1,10-phenanthroline adjusted to Ph 6.8 with ammonium hydroxide) and homogenized using a Ploytron Tissumizer at setting 6 for 15 sec. The homogenate was centrifuged at 50,000×g for 10 min, the supernatant discarded, and the pellet resuspended in ice-cold buffer A by homogenization with the Polytron. Each tissue was homogenized and centrifuged three times. The final pellet was resuspended in buffer A containing bovine serum albumin (1 g/L) and Bacitracin (0.14 g/L) to a final volume of 170 Ml/g of the original tissue weight. The binding assay consisted of 1 Ml in 12×75 mm polypropylene tubes: 50 uL ^3 H-bradykinin (20,000 dpm, ~0.3 Nm in the final assay volume), […] displacing drug in buffer A, and 750 Ul tissue homogenate. […] Tubes were incubated for 90 min at ambient temperature. The assays were terminated by filtration over Whatman GF/B glass fiber filters that had been pretreated for 2 hours with polyethyleneimine (2 g/L) using a Brandel Tissue Harvester, followed by washing with 4×1 Ml aliquots of ice-cold 50 Mm Tris, Ph 7.4. Filters were dissolved in Ready-Safe Fluor (Beckman) for at least 90 min before quantitation by liquid scintillation spectrometry. Kd values were determined using saturation binding and analysis by […]. Pharmacol. Methods, (1985), 213)], followed by LIGAND [[…], Anal. Biochem., (1980), 220]. Ki values were determined using competitive analysis followed by EBDA and LIGAND. The following test results were obtained.

[1] = biological target: T2, bradykinin receptors on intestinal (ileal longitudinal) smooth muscle (Cavia porcellus, UniProt O70526); assay: Bradykinin antagonist activity on guinea pig ileal longitudinal smooth muscle (contraction, Schild analysis); type: cell-based; conditions: antagonism of bradykinin-induced contraction, guinea pig ileum longitudinal muscle, read-out: pA2 (converted)
T2 construct: The longitudinal muscle was separated from the underlying circular muscle; from tissue; host or cells: guinea pig ileal longitudinal smooth muscle strips
T2 sequence (O70526 1-372): T1 sequence (O70526 1-372)
Procedure: Determination of Bradykinin Antagonist Activity
Guinea pig intestine was removed and placed in a Petri dish containing Tyrodes solution and cut into 3-4 cm segments. The longitudinal muscle was separated from the underlying circular muscle using a cotton applicator (Paton and Zar, J. Physiol. (1968), 194:13). Muscle strips were connected to isometric force-displacement transducers (Grass or Gould) coupled to a physiograph and placed in tissue baths containing Tyrode's solution at 37° C. Each preparation was suspended under a resting tension of 2 g.
After equilibration of the tissues, appropriate volumes of bradykinin solutions were cumulatively added to the 10 Ml tissue baths to increase the concentration of bradykinin in the bath step-by-step without washing out after each single dose. Higher concentrations were added only after the preceding contraction had reached a steady value. […] Antagonism of bradykinin responses in the presence of antagonist were determined by repeating the cumulative addition procedure for bradykinin after the tissue has been exposed to the antagonist for 5 minutes. Three or four differentconcentrations of antagonist are studied sequentially in the same preparations. Responses were expressed as a percentage of the maximum contraction elicited by bradykinin in the absence of antagonist. pA2 values were calculated by Schild analysis.

[2] = anesthetized rat, intra-aortic vs intravenous administration; cited from earlier work
[3] = cited from earlier work

N=C(N)NCCC[C@@H](N)C(=O)N[C@@H](CCCNC(=N)N)C(=O)N1CCC[C@H]1C(=O)N1C[C@H](O)C[C@H]1C(=O)NCC(=O)N[C@@H](Cc1ccccc1)C(=O)N[C@@H](CO)C(=O)N1Cc2ccccc2C[C@@H]1C(=O)N1C[C@@H](OCC2CCCCC2)C[C@H]1C(=O)N[C@@H](CCCNC(=N)N)C(=O)O [D-Arg-Arg-Pro-4Hyp-Gly-Phe-Ser-D-Tic-(hydroxyproline cis cyclohexylmethyl ether)-Arg] (H-[dR]RP[Hyp]GFS[dTic][cisHyp](Cyclohexylmethyl)R-OH)
Ki (bradykinin receptor): 13.2 nM

N=C(N)NCCC[C@@H](N)C(=O)N[C@@H](CCCNC(=N)N)C(=O)N1CCC[C@H]1C(=O)N1C[C@H](O)C[C@H]1C(=O)NCC(=O)N[C@@H](Cc1ccccc1)C(=O)N[C@@H](CO)C(=O)N1Cc2ccccc2C[C@@H]1C(=O)N1C[C@@H](Sc2ccccc2)C[C@H]1C(=O)N[C@@H](CCCNC(=N)N)C(=O)O [D-Arg-Arg-Pro-4Hyp-Gly-Phe-Ser-D-Tic-(hydroxyproline cis phenyl thioether)-Arg] (H-[dR]RP[Hyp]GFS[dTic][X1]R-OH)
Ki (bradykinin receptor): 0.06 nM
Kb [1]: 11.2 nM

CCO[C@H]1C[C@@H](C(=O)N[C@@H](CCCNC(=N)N)C(=O)O)N(C(=O)[C@H]2Cc3ccccc3CN2C(=O)[C@H](CO)NC(=O)[C@H](Cc2ccccc2)NC(=O)CNC(=O)[C@@H]2C[C@@H](O)CN2C(=O)[C@@H]2CCCN2C(=O)[C@H](CCCNC(=N)N)NC(=O)[C@H](N)CCCNC(=N)N)C1 [D-Arg-Arg-Pro-4Hyp-Gly-Phe-Ser-D-Tic-(hydroxyproline cis ethyl ether)-Arg] (H-[dR]RP[Hyp]GFS[dTic][cisHyp](Et)R-OH)
Ki (bradykinin receptor): 4.15 nM
Kb [1]: 110 nM

CCO[C@@H]1C[C@@H](C(=O)N[C@@H](CCCNC(=N)N)C(=O)O)N(C(=O)[C@H]2Cc3ccccc3CN2C(=O)[C@H](CO)NC(=O)[C@H](Cc2ccccc2)NC(=O)CNC(=O)[C@@H]2C[C@@H](O)CN2C(=O)[C@@H]2CCCN2C(=O)[C@H](CCCNC(=N)N)NC(=O)[C@H](N)CCCNC(=N)N)C1 [D-Arg-Arg-Pro-4Hyp-Gly-Phe-Ser-D-Tic-(Hydroxyproline trans ethyl ether)-Arg] (H-[dR]RP[Hyp]GFS[dTic][Hyp](Et)R-OH)
Ki (bradykinin receptor): 5.44 nM
Kb [1]: 51.3 nM

N=C(N)NCCC[C@@H](N)C(=O)N[C@@H](CCCNC(=N)N)C(=O)N1CCC[C@H]1C(=O)N1C[C@H](O)C[C@H]1C(=O)NCC(=O)N[C@@H](Cc1cccs1)C(=O)N[C@@H](CO)C(=O)N1Cc2ccccc2C[C@@H]1C(=O)N1C[C@H](OC(=O)Nc2ccccc2)C[C@H]1C(=O)N[C@@H](CCCNC(=N)N)C(=O)O [D-Arg-Arg-Pro-4Hyp-Gly-Thi-Ser-D-Tic-(Hydroxyproline trans phenyl carbamoyl)-Arg]
Ki (bradykinin receptor): 11.5 nM

N=C(N)NCCC[C@@H](N)C(=O)N[C@@H](CCCNC(=N)N)C(=O)N1CCC[C@H]1C(=O)N1C[C@H](O)C[C@H]1C(=O)NCC(=O)N[C@@H](Cc1ccccc1)C(=O)N[C@@H](CO)C(=O)N1Cc2ccccc2C[C@@H]1C(=O)N1C[C@@H](Oc2ccccc2)C[C@H]1C(=O)N[C@@H](CCCNC(=N)N)C(=O)O [D-Arg-Arg-Pro-4Hyp-Gly-Phe-Ser-D-Tic-(hydroxyproline cis phenyl ether)-Arg] (H-[dR]RP[Hyp]GFS[dTic][Pro(cis-4-OPh)]R-OH)
Ki (bradykinin receptor): 2.51 nM

CCCO[C@H]1C[C@@H](C(=O)N[C@@H](CCCNC(=N)N)C(=O)O)N(C(=O)[C@H]2Cc3ccccc3CN2C(=O)[C@H](CO)NC(=O)[C@H](Cc2cccs2)NC(=O)CNC(=O)[C@@H]2C[C@@H](O)CN2C(=O)[C@@H]2CCCN2C(=O)[C@H](CCCNC(=N)N)NC(=O)[C@H](N)CCCNC(=N)N)C1 [D-Arg-Arg-Pro-4Hyp-Gly-Thi-Ser-D-Tic-(Hydroxyproline cis propyl ether)-Arg]
Ki (bradykinin receptor): 1.58 nM
Kb [1]: 224 nM

CO[C@H]1C[C@@H](C(=O)N[C@@H](CCCNC(=N)N)C(=O)O)N(C(=O)[C@H]2Cc3ccccc3CN2C(=O)[C@H](CO)NC(=O)[C@H](Cc2cccs2)NC(=O)CNC(=O)[C@@H]2C[C@@H](O)CN2C(=O)[C@@H]2CCCN2C(=O)[C@H](CCCNC(=N)N)NC(=O)[C@H](N)CCCNC(=N)N)C1 [D-Arg-Arg-Pro-4Hyp-Gly-Thi-Ser-D-Tic-(hydroxyproline cis methyl ether)-Arg]
Ki (bradykinin receptor): 1.83 nM
Kb [1]: 141 nM

RPPGFSPFR [bradykinin, Arg-Pro-Pro-Gly-Phe-Ser-Pro-Phe-Arg]
destruction on a single passage through the pulmonary circulation [2]: 98-99%
half life in the systemic circulation [3]: less than 30 seconds

CCCO[C@@H]1C[C@@H](C(=O)N[C@@H](CCCNC(=N)N)C(=O)O)N(C(=O)[C@H]2Cc3ccccc3CN2C(=O)[C@H](CO)NC(=O)[C@H](Cc2cccs2)NC(=O)CNC(=O)[C@@H]2C[C@@H](O)CN2C(=O)[C@@H]2CCCN2C(=O)[C@H](CCCNC(=N)N)NC(=O)[C@H](N)CCCNC(=N)N)C1 [D-Arg-Arg-Pro-4Hyp-Gly-Thi-Ser-D-Tic-(Hydroxyproline trans propyl ether)-Arg]
Ki (bradykinin receptor): 4.85 nM
Kb [1]: 138 nM

N=C(N)NCCC[C@@H](N)C(=O)N[C@@H](CCCNC(=N)N)C(=O)N1CCC[C@H]1C(=O)N1C[C@H](O)C[C@H]1C(=O)NCC(=O)N[C@@H](Cc1ccccc1)C(=O)N[C@@H](CO)C(=O)N1Cc2ccccc2C[C@@H]1C(=O)N1C[C@@H](Oc2ccc([N+](=O)[O-])cc2)C[C@H]1C(=O)N[C@@H](CCCNC(=N)N)C(=O)O [D-Arg-Arg-Pro-4Hyp-Gly-Phe-Ser-D-Tic-(hydroxyproline cis 4-nitrophenyl ether)-Arg] (H-[dR]RP[Hyp]GFS[dTic][X3]R-OH)
Ki (bradykinin receptor): 3.98 nM
Kb [1]: 138 nM

N=C(N)NCCC[C@@H](N)C(=O)N[C@@H](CCCNC(=N)N)C(=O)N1CCC[C@H]1C(=O)N1C[C@H](O)C[C@H]1C(=O)NCC(=O)N[C@@H](Cc1ccccc1)C(=O)N[C@@H](CO)C(=O)N1Cc2ccccc2C[C@@H]1C(=O)N1C[C@@H](Oc2ccccc2[N+](=O)[O-])C[C@H]1C(=O)N[C@@H](CCCNC(=N)N)C(=O)O [D-Arg-Arg-Pro-4Hyp-Gly-Phe-Ser-D-Tic-(hydroxyproline cis 2-nitrophenyl ether)-Arg] (H-[dR]RP[Hyp]GFS[dTic][X2]R-OH)
Ki (bradykinin receptor): 3.76 nM
Kb [1]: 141 nM
